Measured values taken from patent publication US20240366543A1, “METHODS OF TREATING METHYLMALONIC ACIDEMIA AND PROPIONIC ACIDEMIA” (HemoShear Therapeutics, Inc., priority 2021, published 2024).

Test: Phase 2 study preliminary plasma pharmacokinetics in PA/MMA subjects
Assay type: in vivo, human
Conditions: dose range of 1 mg/kg to 30 mg/kg, once or twice daily
Procedure: Part A is the dose escalation phase to assess the initial safety and to confirm the pharmacologic activity of Compound 5 in subjects with PA and MMA. Screening for eligibility took place within 28 days of enrollment. All subjects were initially evaluated during a 4-week run-in period followed by within-subject dose escalation of 3 doses (1, 3, and 10 mg/kg QD of sodium 2,2-dimethylbutanoate); dose escalation interval of 4 weeks) to check for improvement in disease-related biomarkers.
Plasma will be analyzed by liquid chromatography with tandem mass spectrometry (LC-MS/MS) with a lower limit of quantitation of 0.100 μg/mL. Samples collected for analyses of Compound 5 (plasma/serum/whole blood)] concentration may also be used to evaluate safety or efficacy aspects related to concerns arising during or after the study.
Preliminary pharmacokinetics (PK) data from the first two subjects of Study described in Examples 7-8 was evaluated at 1 mg/kg, 3 mg/kg and 10 mg/kg of Compound 5 dosed once daily (QD).

## CCC(C)(C)C(=O)[O-].[Na+] [Compound 5A, 2,2-dimethylbutyric acid sodium salt]
  Blood plasma concentrations versus dose: dose proportional
